Data published in patent US5707821A, “Identification of phospholipase A2 inhibitors in Aβ peptide-mediated neurodegenerative disease” (priority 1995, dated 1998).

Legend:
Type in all cases: cell-based
human cortical neurons = assay: Aβ neurotoxicity in human cortical neurons (alamarBlue), 2 h pretreatment with inhibitor; conditions: Homo sapiens, Cortical neurone, 50 μM Aβ1-40, compound 390 nM to 100 μM, 2 h pretreatment and re-added with Aβ, 3 days, n=3
Procedure: Cultures of human cortical or hippocampal neurons were prepared using a modification of the procedure described in P. Seubert et al. (1992), Nature 359:325-327. Cortical or hippocampal tissue was dissociated by incubation in a trypsin/EDTA solution (0.05% trypsin +0.53 mM EDTA in HBSS; Gibco) for 20 minutes at 37° C. The trypsin was then inactivated by resuspending the cells in serum-containing medium (MEM/FBS): Modified Eagle's Medium (MEM) containing 1% glucose, 1 mM sodium pyruvate, 1 mM glutamine, and supplemented with 10% fetal bovine serum (Gibco). Cells were then pelleted by centrifugation and resuspended in a chemically-defined medium (MEM/B27): MEM containing B27 supplement (Gibco) in place of FBS. Polyethyleneimine (PEI)-coated 6.4-mm (96-well) dishes were rinsed once with MEM/FBS, and then seeded at 0.75-1.25×10^5 cells per well in 0.1 ml MEM/B27. Cultures were maintained in a H2 O-saturated incubator with an atmosphere of 95% air/5% CO2 at 37° C. The culture medium was exchanged twice weekly.
Amyloid-β (Aβ) stock solutions were prepared as 1 mM stocks in sterile ddH2 O immediately prior to addition to cultures. Rat cortical neurons were exposed to Aβ by removing the culture medium and replacing it with DMEM/N2 or DMEM/B27 containing Aβ1-40. Human cortical neurons were exposed to Aβ by removing the culture medium and replacing it with MEM, MEM/N2, or MEM/B27 containing Aβ1-40. Cultures were maintained for 2-4 days before neuronal survival was quantified using alamarBlue™.
The alamarBlue™ assay incorporated a proprietary fluorometric/colorimetric metabolic indicator (Alamar Biosciences, Inc.). Viable cells convert alamarBlue™ from an oxidized (non-fluorescent, blue) form to a reduced (fluorescent, red) form. Assays were performed by replacing the culture media with a 10% alamarBlue™ solution in DMEM (rat cortical cultures) or MEM (human cortical cultures). Reduction of alamarBlue™ was determined spectrofluorometrically using a Millipore Cytofluor 2350 Scanner (excitation, […]; emission, 590 nm) and CytoCalc™ software (Millipore Corporation).
The effect of pretreating human cortical neuron cultures with the benzenesulfonamide PLA2 inhibitors and arachidonyl trifluoromethyl ketone prior to exposure to a neurotoxic concentration of Aβ1-40 was determined.
Human cortical neurons were treated with 50 μM Aβ1-40 and various inhibitors of PLA2. Compounds were added 2 hours prior to Aβ1-40 treatment at concentrations of 390 nM to 100 μM, and were then re-added at the time of Aβ1-40 treatment. Compounds were also added in an identical manner to neuronal cultures in the absence of Aβ1-40. Neuronal survival was determined after 3 days of treatment by alamarBlue®. IC50 is the dose of compound that inhibited Aβ-mediated neurotoxicity by 50%. […] Data represents the mean ± SD (n=3). ND, not detected at the concentration range used.

[1] = tested on: TNFα release by cultured human cortical microglia; assay: TNF release from LPS-stimulated human cortical microglia
Procedure: (§1) Cultures of human cortical or hippocampal astrocytes and microglia were prepared using a modification of the procedure described for cortical neurons. Cortical tissue from fetuses of 16 to 20 weeks of gestation was washed 3 times in Ca^2+ /Mg^2+ free Hanks balanced salt solution (CMF HBSS) and then dissociated by repeated pipetting. The solution was brought to a final volume of 80 ml CMF HBSS for approximately 10 ml of tissue. DNase (Sigma) was added to a final concentration of 0.05 mg/ml. 20 ml of the solution was passed through one 100 μm nylon cell strained (Falcon). The cells were then centrifuged for 5 minutes at 200×G in an IEC Clinical Centrifuge and resuspended in a trypsin/EDTA solution (0.05% trypsin+0.53 mM EDTA in HBSS; Gibco) and incubated for 20 minutes at 37°C. (10 ml of trypsin was added per 2-3 ml of tissue). The trypsin was then inactivated by adding (MEM/FBS): Modified Eagle's Medium (MEM) containing 1% glucose, 1 mM sodium pyruvate, 1 mM glutamine, and supplemented with 10% fetal bovine serum (JRH). After adding a final concentration of 0.05 mg/ml DNase the cells were resuspended and then pelleted by centrifugation and resuspended in MEM/FBS. 1.6×10^8 cells were seeded in a T-150 tissue culture flask coated with polyethyleneimine (PEI). (10% PEI (Sigma) was diluted 1:10 in H2 O, filtered through a […] unit and then diluted into 150 mM sodium borate pH 8.5 at 1:100. The flasks were coated overnight at room temperature, washed two times in PBS and coated with 20 ml/flask of MEM/FBS at 37° C. for at least one hour prior to plating cells.) Cultures were maintained in a H2 O-saturated incubator with an atmosphere of 95% air/5% CO2 at 37° C. The culture medium was changed one and four days after plating and the cultures were then left undisturbed for at least one week. After approximately two weeks in vitro, the flasks were gently shaken and floating microglia were collected and centrifuged for 5 minutes at 200×G in an IEC Clinical Centrifuge. The microglia were reseeded in 96 well tissue culture plates at a density of 5,000-40,000 cells/well in 125 μl in MEM/FBS. Astrocyte cultures were prepared by multiple passaging of the established mixed brain cell cultures. Each T-150 was incubated for 3-4 minutes at 37°C. with a trypsin/EDTA solution (see above). The trypsin was then inactivated by adding MEM/FBS. The cells were triturated and then pelleted by centrifugation and resuspended in MEM/FBS. The cells from one T-150 were seeded at a 1:30 to 1:5 dilution in T-150's not coated. Just prior to confluency the cells were repassaged by trypsinization as described above. This process was repeated until the cultures were >98% pure astrocytes.
(§2) The effects of the benzenesulfonamide PLA2 inhibitor AN20606 and the selective cytosolic PLA2 inhibitor arachidonyl trifluoromethyl ketone (AN20579) were examined in cultured human cortical microglia for their selectivity for inhibiting microglia activation mediated by amyloid-βpeptide and lipopolysaccharides (LPS). LPS are a major constituent of the cell wall of gama-negative bacteria and are extensively used for generating inflammatory responses in cultured cells and in vivo.

[2] = tested on: IL-1β release by cultured human cortical microglia; assay: IL-1 release from LPS-stimulated human cortical microglia
Procedure: as §1, §2

[3] = 10 ng/ml LPS, inhibitor 20 μM where present

Question: With CN(C(=O)/C=C/c1ccc(S(C)(=O)=O)cc1)c1ccc(S(=O)(=O)NC2CCCCCC2)cc1 [AN20606, N-cycloheptyl-4-[N-methyl-N-[(E)-3-(4-methylsulfonylphenyl)-2-propenoyl]amino]benzenesulfonamide] as the compound, how does the Emax (human cortical neurons; 72 h, read-out: Max Inh) read?
Answer: The Emax was 89%.

Question: And the IC50 (human cortical neurons; ND = not detected at the concentration range used, read-out: IC50 (dose that inhibited Aβ-mediated neurotoxicity by 50%))?
Answer: The IC50 was 3 µM.

Question: And the “TNF Released” value [1, 3]?
Answer: The value was 632 ± 211 pg/mL.

Question: What about the activity at 20 µM ([1]; Homo sapiens, Microglia, 10 ng/ml LPS + 20 μM inhibitor, read-out: TNF Released, percent in parentheses (relative to LPS alone)) of the same compound?
Answer: The activity at 20 µM was 130%.

Question: And the “LPS-mediated cytokine release, TNF (in words)” value ([1]; LPS stimulation)?
Answer: The value was “actually enhanced”.

Question: What about the “IL-1 Released” value [2, 3] of the same compound?
Answer: The value was 37 ± 0.3 pg/mL.

Question: And the activity at 20 µM ([2]; Homo sapiens, Microglia, 10 ng/ml LPS + 20 μM inhibitor, read-out: IL-1 Released, percent in parentheses (relative to LPS alone))?
Answer: Its activity at 20 µM is 163%.

Question: And the “LPS-mediated cytokine release, IL-1 (in words)” value ([2]; LPS stimulation)?
Answer: The value was “actually enhanced”.
